This is an account of results in the METLIN SMRT retention time set (Domingo-Almenara et al. 2019).

The nature of this series: gradient 5% acetonitrile 3 min, to 50% in 2 min, to 85% in 15 min, held 3 min, 100 µL/min. The note with it: column: Zorbax Extend-C18 2.1 x 50 mm; eluents: water / acetonitrile, 0.1% formic acid. In outline: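 Data were gathered over 3 months by HPLC coupled to a quadrupole time-of-flight mass spectrometer, operated in positive and negative ionization mode. Mixtures of ~100 pure standards ran on a Zorbax Extend-C18 column (2.1 × 50 mm, 1.8 μm) at 100 μL/min, with water and acetonitrile each containing 0.1% formic acid and dead and dwell volumes of 40 μL and 900 μL. Retention time was read from adduct peaks picked by computer and checked manually.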
Molecule `Cc1cc(C)n2ncc(-c3ccc(C)c(S(=O)(=O)NCc4ccc(F)cc4Cl)c3)c2n1` returned an RP-LC retention time of 1080 s.
For the molecule `Cc1ccc(F)c(-n2nnc(C(=O)O)c2C)c1`, the RP-LC retention time was found to be 689 s.
`CCc1nc(-c2csc(S(=O)(=O)N3CCCC(C(=O)NC4CC4)C3)c2)no1` (stereo not given) registered an RP-LC retention time of 787 s.
Take `CCc1ccc(-c2noc(Cn3nc(-c4ccc5c(c4)OCO5)ccc3=O)n2)cc1`: the RP-LC retention time was determined as 1200 s.
Regarding `Cc1cccc(-c2ncccc2CNS(=O)(=O)c2cc(F)ccc2F)c1`, the RP-LC retention time turned out to be 738 s.
The molecule `O=C(CCc1ccc2nc(-c3ccccc3)[nH]c2c1)NC1CCCC1` returned an RP-LC retention time of 618 s.
`COc1ccc(S(=O)(=O)N2C[C@@H](F)C[C@H]2C(=O)N2CCCCC2)cc1Cl` gave an RP-LC retention time of 785 s.
On to `CCOc1ccc(CNC(=O)C2CCCN(c3ccc(=O)n(-c4ccc(F)cc4)n3)C2)cc1` (stereo not given), for which the RP-LC retention time is 869 s.
`CC(NC(=O)c1ccco1)c1nc(-c2ccc(N3CCCCC3)cc2)no1` (stereo not given) returned an RP-LC retention time of 859 s.
The result for `CS(=O)(=O)c1ccc(SCC(=O)N2CCOCC2)c([N+](=O)[O-])c1` reads 636 s; that for `Cc1ccc(-n2nc3c(=O)n(CCCC(=O)NCC4CCCO4)nc(C)c3c2C)cc1` (stereo not given), 731 s.
In the case of `CCC1c2nccn2CCCN1C(=O)c1ccc2c(c1)OCO2` (stereo not given), the RP-LC retention time was found to be 593 s.
`Cc1cc(N2CCC(NC(=O)Nc3cc(F)cc(F)c3)C2=O)ccc1F` (stereo not given) yielded an RP-LC retention time of 931 s.
Consider `Cc1ccc(-c2noc(Cc3nnc(-c4ccc(F)cc4)o3)n2)cc1C`, for which the RP-LC retention time turned out to be 1120 s.
For the molecule `CCCNC(=O)C1CCCN(c2nc3ncn(CC(=O)NCc4ccc(OC)cc4)c(=O)c3s2)C1` (stereo not given), the RP-LC retention time is 680 s.
Take `Cc1ccc(NC(=O)Cn2cnc3nc(N4CCC(C(=O)NC5CC5)CC4)sc3c2=O)cc1F`: the RP-LC retention time came to 703 s.
`O=C(c1cc(F)ccc1F)N1CCc2nc(-c3ccc(Cl)cc3)ncc2C1` came in with an RP-LC retention time of 1090 s.
On to `COCCN1CC2(CCN(S(=O)(=O)c3ccc(C(C)C)cc3)CC2)C1c1ccccc1` (stereo not given), for which the RP-LC retention time came out at 776 s.
Molecule `CCn1cnc(S(=O)(=O)N2CCC(C(=O)Nc3cccc(C)c3C)CC2)c1` showed an RP-LC retention time of 721 s.
The molecule `CCc1noc(-c2ccc(-n3ncc(C(=O)N4CCN(C)CC4)c3C)nc2)n1` had an RP-LC retention time of 618 s.
`CCc1ccc(C2=C(C)C(N3CCCN(C(=O)NCCCOC)CC3)=NS2(=O)=O)cc1` returned an RP-LC retention time of 761 s.
Turning to `O=C(CSCc1ccccc1)Nc1ccccc1Cl`, the RP-LC retention time came out at 978 s.
In turn, `Cc1noc([C@@H]2CC(F)(F)CN2C(=O)c2nccn2C)n1` showed an RP-LC retention time of 701 s.
`COc1ccc(OC)c(NC(=O)N2CCC(C)(C(=O)NCc3ccc4c(c3)OCO4)CC2)c1` had an RP-LC retention time of 806 s.
The result for `Cc1nc2ccn(Cc3ccco3)c(=O)c2cc1C(=O)NCCCN1CCOCC1` reads 578 s; that for `CC1Oc2ccc(-c3csc(NC(=O)c4ccccc4)n3)cc2N(C)C1=O` (stereo not given), 970 s.
The molecule `Cc1c(C(=O)N2CCOCC2)cc(-c2ccccc2)n1C` came in with an RP-LC retention time of 616 s.
As to `COc1ccccc1NC(=O)c1[nH]c2cc(C)sc2c1CN(C)C`, the RP-LC retention time was 678 s.
Molecule `COc1cc(NC(=O)CN2C(=O)C(C)(C)c3cc(C)ccc32)cc(OC)c1OC` had an RP-LC retention time of 823 s.
As for `Cc1cc(C(=O)Nc2nc3c(C)cc(Cl)cc3s2)on1`, the RP-LC retention time amounted to 985 s.
The result for `CCCOc1nc2c(c(=O)n(C)c(=O)n2C)n1C` reads 788 s; that for `Cc1ccc(N(C)C(=O)c2nc(N3CCSCC3)c3cnn(C)c3n2)cc1`, 812 s.
As to `Cn1cc(C(=O)N2CC(n3cc(COc4ccc(F)cc4)nn3)C2)cn1`, the RP-LC retention time is 641 s.
Molecule `CCc1ccc(-c2noc(Cn3c(=O)n(Cc4cccc(OC)c4)c(=O)c4sccc43)n2)cc1` gave an RP-LC retention time of 1170 s.
`CCCN(c1cccc(Cl)c1)c1nc(C(=O)OCC)nc2ccccc12` displayed an RP-LC retention time of 1200 s.
Regarding `COCCc1noc(C2CN(S(=O)(=O)Cc3ccccc3F)C2)n1`, the RP-LC retention time came out at 858 s.
Molecule `COCc1nc(C2CCCN(C(=O)NC3CCCC3)C2)no1` (stereo not given) showed an RP-LC retention time of 743 s.
The figure for `CC(C)CCNC(=O)c1ccc2c(c1)CCCN2S(C)(=O)=O` is 846 s.
The figure for `Cc1cc(C)n2nc(CN(C(=O)c3ccco3)c3ccc(F)cc3)nc2n1` is 715 s.
The figure for `CC1CCN(c2nn(CC(=O)Nc3cccc(Cl)c3)c(=O)c3ccccc23)CC1` is 1210 s; for `CCCNC(=O)CCc1nc2ccccc2n(CC(=O)Nc2cc(Cl)c(OC)cc2OC)c1=O` it is 790 s; for `COc1ccc(S(=O)(=O)N2CCCC(C(N)=O)C2)cc1OC` (stereo not given) it is 640 s.
As for `CCOc1ccc(CC(=O)N2C[C@@H]3C[C@H]2C[C@@H]3NS(=O)(=O)c2cccs2)cc1`, the RP-LC retention time is 791 s.
The result for `Cc1ccccc1-c1nc(C)c(C(=O)NC2CC2)s1` reads 863 s; that for `CC1(C)C2CCC(CN=C(N)CSS(=O)(=O)O)C1C2` (stereo not given), 738 s; that for `Cc1ccc(NC(=O)N2CCC(n3cnc4c(C)cccc4c3=O)CC2)c(C)c1`, 835 s.
As to `O=C(Nc1ccc2c(c1)C(=O)NCC2)Nc1ccccc1C(F)(F)F`, the RP-LC retention time was determined as 694 s.
The figure for `O=C(c1ccccc1Br)N1CCN(c2nc(CN3CCCC3)cs2)CC1` is 627 s; for `Cc1noc(C)c1CN1CCC(NC(=O)c2cccc(C#N)c2)C1` (stereo not given) it is 578 s; for `COc1ccc(N2CCN(C(=O)Cn3nc(C(=O)N4CCCC4)c4ccccc43)CC2)cc1` it is 753 s.
In the case of `CC(C)OCCCNc1nc(Nc2ccc3c(c2)OCO3)c2cnn(-c3ccccc3)c2n1`, the RP-LC retention time was found to be 1140 s.
Consider `O=C(c1cnn2c(-c3ccc4c(c3)OCO4)ccnc12)N1CCN(c2ccc(F)cc2)CC1`, for which the RP-LC retention time was found to be 890 s.
With `Brc1cccc(-c2nnc(Cc3nc(-c4ccncc4)no3)o2)c1`, the RP-LC retention time stood at 854 s.
In the case of `O=C(NCc1ccc(C(F)(F)F)cc1)c1cnc(-c2ccccc2)nc1-c1ccncc1`, the RP-LC retention time was found to be 935 s.
`CSc1ccc(CCNC(=O)CCCN2C(=O)CCn3nc(C)cc32)cc1` came in with an RP-LC retention time of 690 s.
`CC(C)Cc1nc2cccnc2n1C1CCN(C(=O)Nc2ccccc2)CC1` returned an RP-LC retention time of 677 s.
`O=C(c1ccc(OCC2CCCN2C(=O)c2ccc(Cl)cc2)cc1)N1CCOCC1` (stereo not given): the RP-LC retention time was determined as 795 s.
On to `Cc1noc(-c2cc(=O)n(CC(=O)NCc3ccccc3)c3ccccc23)n1`, for which the RP-LC retention time was determined as 812 s.
On to `Cc1cccc(NS(=O)(=O)c2cc3n(c2)CCCN(C)C3=O)c1`, for which the RP-LC retention time is 695 s.
`Cc1cc(C)cc(C(=O)NC(Cc2ccccc2)c2nnc(N3CCSCC3)o2)c1` (stereo not given) gave an RP-LC retention time of 918 s.
The molecule `Cc1cccc(NC(=O)N2CC(N(C3CCOCC3)S(C)(=O)=O)C2)c1` showed an RP-LC retention time of 706 s.
The figure for `Cc1ccc(Cn2nc3ccc(S(=O)(=O)N4CCCCC4)cn3c2=O)cc1C` is 1020 s; for `CCN(CC)CCNC(=O)C1COc2ccc(OC)cc2C1` (stereo not given) it is 602 s.
Molecule `Cc1ccccc1OCc1nc(CCN(C)C(=O)CC2CCCC2)no1` came in with an RP-LC retention time of 1020 s.
Turning to `COc1ccc(S(=O)(=O)NCc2ccc3c(c2)CCN3C(=O)c2ccc(F)cc2)cc1`, the RP-LC retention time was found to be 927 s.
The molecule `NC(=O)c1ccccc1NC(=O)C1CN(c2nc3c(F)cccc3s2)C1` registered an RP-LC retention time of 706 s.
The molecule `O=C(Cn1cccc1-c1nnc(-c2ccccc2)o1)Nc1ccc2c(c1)OCCO2` returned an RP-LC retention time of 897 s.
The result for `CCC(=O)N1CCc2sc(C(=O)N3CCN(c4ccc(OC)cc4)CC3)cc2C1` reads 717 s; that for `Cn1cc(-c2ccncc2)cc1C(=O)NCc1ccc(Cl)cc1`, 646 s; that for `O=C(CCc1ccc2c(c1)CN(S(=O)(=O)c1cccc3nsnc13)CCO2)NC1CC1`, 756 s.
The molecule `CCCN1C(=O)C(CC(=O)N2CCN(C)CC2)Sc2ncccc21` (stereo not given) yielded an RP-LC retention time of 576 s.
On to `O=C(Nc1ccc2c(c1)OCCO2)N1CCCC(Cn2c(C3CC3)nc3cccnc32)C1` (stereo not given), for which the RP-LC retention time was 645 s.
Turning to `COCCNC(=O)C(=O)NCCC(O)C(C)(C)C` (stereo not given), the RP-LC retention time stood at 614 s.
Take `N#Cc1ccc(C(=O)NCC(=O)N2CCCc3ccccc32)cc1`: the RP-LC retention time amounted to 773 s.
`Cc1cc(-c2ccc(S(=O)(=O)N3CCC(C(=O)NC4CCCCCC4)CC3)o2)n[nH]1` registered an RP-LC retention time of 852 s.
With `CCc1ccccc1NS(=O)(=O)c1cc(-c2nc(C)cs2)sc1C`, the RP-LC retention time was 1100 s.
The figure for `CCn1cc2c3c(cccc31)CN(C(=O)Nc1cc(C)cc(C)c1)CC2` is 1070 s; for `Cn1c(=O)sc2cc(S(=O)(=O)N3CCC(C(=O)NCc4ccc(F)cc4)CC3)ccc21` it is 818 s.
The figure for `CCCCNC(=O)Cc1c(C)nn(-c2nc(-c3ccc(Cl)cc3)cs2)c1C` is 1180 s; for `c1ccc(OCCC2CCN(Cc3ccc4[nH]ccc4c3)C2)cc1` (stereo not given) it is 726 s.
